Measurements as given in US12473295B2, “Substituted straight chain spiro derivatives” (Janssen Pharmaceutica NV, priority 2019, dated 2025).
Counter-ions that a name gives are not always drawn.

Tests used:
hERG potassium channel = hERG potassium channel (Homo sapiens (Human), UniProt Q12809); assay: Effect on membrane potassium current IKr in hERG transfected CHO cells, Protocol 1 (QPatch); assay type: cell-based
Procedure, shortened: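 Whole-cell automated patch clamp on CHO cells stably expressing hERG, held at −80 mV; the value is the tail current at −40 mV after a 2 s step to +60 mV, at pH 7.4 bath and pH 7.2 pipette. After 0.3% DMSO control, compound was applied at 3×10^−7 M, 3×10^−6 M, 10^−5 M and 3×10^−5 M, 5 min each. IC50 comes from a non-linear least-squares fit of block versus vehicle.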

[1] = Mouse PK (in vivo T1/2 and oral bioavailability); conditions: fasted male CD-1 mice, formulating agent HP-β-CD; for half-life: single IV 0.5 or 1.0 mg/kg; for bioavailability: single PO 5 mg/kg
Method: 3) Mouse PK (In Vivo T1/2 and Oral Bioavailability)
In vivo pharmacokinetics (PK) were assessed in fasted male CD-1 mice (age 6-8 weeks) following a single intravenous (IV, 0.5 or 1.0 mg/kg administered at 2.5 ml/kg) or oral (PO, 5 mg/kg administered at 10 ml solution/kg) dose of test article formulated in a 20% (w:vol) HP-β-CD solution or in Pyrogen free water.
Plasma and/or whole blood samples were collected from the dorsal metatarsal vein at desired timepoints via serial capillary microsampling (approx. 0.03 mL) using EDTA as an anticoagulant. Concentrations of compound in the plasma and blood samples were analyzed using a qualified LC-MS/MS method. In silico analysis of main pharmacokinetic parameters was performed using WinNonlin (Phoenix™, version 6.1) or similar software. (Results see Table 4)

hERG potassium channel, sequence (Q12809 whole entry): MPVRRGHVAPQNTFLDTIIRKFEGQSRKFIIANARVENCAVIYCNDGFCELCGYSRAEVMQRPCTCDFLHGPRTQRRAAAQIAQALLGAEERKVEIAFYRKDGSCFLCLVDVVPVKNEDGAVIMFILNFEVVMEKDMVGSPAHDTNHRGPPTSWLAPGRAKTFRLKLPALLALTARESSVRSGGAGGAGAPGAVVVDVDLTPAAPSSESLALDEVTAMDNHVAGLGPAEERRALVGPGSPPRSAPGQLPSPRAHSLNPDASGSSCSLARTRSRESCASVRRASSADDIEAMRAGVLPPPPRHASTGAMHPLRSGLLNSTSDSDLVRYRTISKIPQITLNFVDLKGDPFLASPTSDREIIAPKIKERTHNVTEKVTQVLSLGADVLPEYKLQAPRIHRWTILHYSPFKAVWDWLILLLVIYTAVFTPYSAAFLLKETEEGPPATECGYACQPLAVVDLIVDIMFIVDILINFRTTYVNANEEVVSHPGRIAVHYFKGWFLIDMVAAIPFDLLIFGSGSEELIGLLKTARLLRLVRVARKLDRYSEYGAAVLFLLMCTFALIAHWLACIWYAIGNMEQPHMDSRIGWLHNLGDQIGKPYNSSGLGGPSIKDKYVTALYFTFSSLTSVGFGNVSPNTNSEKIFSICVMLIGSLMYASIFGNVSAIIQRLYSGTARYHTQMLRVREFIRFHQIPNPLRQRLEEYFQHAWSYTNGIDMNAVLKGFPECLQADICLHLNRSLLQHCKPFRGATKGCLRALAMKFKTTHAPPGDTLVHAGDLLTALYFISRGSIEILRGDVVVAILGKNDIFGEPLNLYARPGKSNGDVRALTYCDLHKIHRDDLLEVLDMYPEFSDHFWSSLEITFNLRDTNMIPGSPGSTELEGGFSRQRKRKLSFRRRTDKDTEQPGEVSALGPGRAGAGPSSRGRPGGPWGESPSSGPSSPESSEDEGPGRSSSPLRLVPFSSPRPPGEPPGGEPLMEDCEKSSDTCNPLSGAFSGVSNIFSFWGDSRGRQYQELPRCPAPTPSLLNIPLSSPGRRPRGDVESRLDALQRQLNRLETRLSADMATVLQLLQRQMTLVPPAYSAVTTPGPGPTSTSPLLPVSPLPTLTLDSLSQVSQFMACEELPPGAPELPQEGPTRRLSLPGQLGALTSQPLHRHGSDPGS

Row | half-life [1] | bioavailability [1] | SMILES | IC50 (hERG potassium channel)
1 | > 720 min | < 1% | CC(C)[C@@H](CCC(C)(C)N)N1CC2(CCN(c3ncnnc3Oc3ccc(F)cc3-c3cncnc3C3CC3)C2)C1 (single isomer, unassigned) [Compound 37, (*R)-5-(6-(6-(2-(4-cyclopropylpyrimidin-5-yl)-4-fluorophenoxy)-1,2,4-triazin-5-yl)-2,6-diazaspiro[3.4]octan-2-yl)-2,6-dimethylheptan-2-amine] | > 30.2 µM
2 | 900 min | < 1% | CCN(C(=O)c1cc(F)ccc1Oc1nncnc1N1CCC2(C1)CN([C@H](CCCN)C(C)C)C2)C(C)C [Compound 1, (R)-2-((5-(2-(6-amino-2-methylhexan-3-yl)-2,6-diazaspiro[3.4]octan-6-yl)-1,2,4-triazin-6-yl)oxy)-N-ethyl-5-fluoro-N-isopropylbenzamide formate] | > 30.2 µM
3 | 522 min | 6.1% | CCN(C(=O)c1cc(F)ccc1Oc1nncnc1N1CCC2(C1)CN([C@H](CCCNCC(OC)OC)C(C)C)C2)C(C)C.O=C(O)/C=C/C(=O)O [Compound 104, (R)-2-((5-(2-(6-((2,2-dimethoxyethyl)amino)-2-methylhexan-3-yl)-2,6-diazaspiro[3.4]octan-6-yl)-1,2,4-triazin-6-yl)oxy)-N-ethyl-5-fluoro-N-isopropylbenzamide fumarate] | 
4 | 420 min | < 1% | CCN(C(=O)c1cc(F)ccc1Oc1nncnc1N1CCC2(C1)CN([C@H](CCCN(C)CCNC(C)=O)C(C)C)C2)C(C)C.O=C(O)/C=C/C(=O)O [Compound 245, (R)-2-((5-(2-(6-((2-acetamidoethyl)(methyl)amino)-2-methylhexan-3-yl)-2,6-diazaspiro[3.4]octan-6-yl)-1,2,4-triazin-6-yl)oxy)-N-ethyl-5-fluoro-N-isopropylbenzamide fumarate] | 
